# Assay results as given in patent publication US5024994A, “Renin inhibitors IV” (Warner-Lambert Company, priority 1988, dated 1991).
# Molecular target: T1, renin (Homo sapiens, UniProt P00797)
# T1 sequence (P00797 67-406): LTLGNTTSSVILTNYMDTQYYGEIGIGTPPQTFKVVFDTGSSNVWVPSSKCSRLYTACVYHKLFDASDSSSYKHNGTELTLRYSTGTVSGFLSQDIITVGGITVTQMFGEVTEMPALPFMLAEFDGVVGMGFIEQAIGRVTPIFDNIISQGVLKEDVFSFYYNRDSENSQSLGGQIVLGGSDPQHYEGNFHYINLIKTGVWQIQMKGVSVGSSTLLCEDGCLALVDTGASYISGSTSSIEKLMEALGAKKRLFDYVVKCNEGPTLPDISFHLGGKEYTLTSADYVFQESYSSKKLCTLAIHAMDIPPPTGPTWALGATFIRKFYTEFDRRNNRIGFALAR
# Assay: in vitro renin inhibitory activity, radioimmunoassay for angiotensin I
# Type: biochemical
# Conditions: not given
# Protocol: The effectiveness of the aforementioned compounds is determined by a test for in vitro renin inhibitory activity. This activity is determined by a standard radioimmunoassay for angiotensin I. In this assay the enzyme, renin, incubated for two hours at 37° in the presence of a substrate, angiotensinogen, generates the product, angiotensin I. Test compounds are added to the incubation mixture.
row,Compound,IC50 [nM]
1,CCC(C)CNC(=O)C[C@H](O)[C@H](CC(C)C)NC(=O)[C@H](CCCCNP(=O)(Oc1ccccc1)Oc1ccccc1)NC(=O)C(Cc1cccc2ccccc12)Cc1cccc2ccccc12 (stereo partly shown),7400
2,CCC(C)CNC(=O)C[C@H](O)[C@H](CC(C)C)NC(=O)[C@H](CCCCNC(=NC#N)SC)NC(=O)C(Cc1cccc2ccccc12)Cc1cccc2ccccc12 (stereo partly shown),19
3,CC[C@H](C)CNC(=O)C[C@H](O)[C@H](CC(C)C)NC(=O)[C@H](CCCCn1cccc1)NC(=O)C(Cc1cccc2ccccc12)Cc1cccc2ccccc12,87
4,CC(C)C[C@H](NC(=O)C[C@H](O)[C@H](CC(C)C)NC(=O)[C@H](CCCCNC(=N)N[N+](=O)[O-])NC(=O)C(Cc1cccc2ccccc12)Cc1cccc2ccccc12)C(=O)NCc1ccccc1,15
5,CNC(=S)NCCCC[C@H](NC(=O)C(Cc1cccc2ccccc12)Cc1cccc2ccccc12)C(=O)N[C@@H](CC(C)C)[C@@H](O)CC(=O)N[C@@H](CC(C)C)C(=O)NCc1ccccc1,60
6,CCC(C)CNC(=O)C[C@H](O)[C@H](CC(C)C)NC(=O)C(CCCCCNC(=N)N[N+](=O)[O-])NC(=O)C(Cc1cccc2ccccc12)Cc1cccc2ccccc12 (stereo partly shown),26
7,CC(C)C[C@H](NC(=O)C[C@H](O)[C@H](CC(C)C)NC(=O)C(CCCCCNC(=N)N[N+](=O)[O-])NC(=O)C(Cc1cccc2ccccc12)Cc1cccc2ccccc12)C(=O)NCc1ccccc1 (stereo partly shown),110
8,CC[C@H](C)CNC(=O)C[C@H](O)[C@H](CC(C)C)NC(=O)C(CCCCCCNC(=S)NC)NC(=O)C(Cc1cccc2ccccc12)Cc1cccc2ccccc12 (stereo partly shown),45
9,CC[C@H](C)CNC(=O)C[C@H](O)[C@H](CC(C)C)NC(=O)C(CC#CCNC(=O)OCc1ccccc1)NC(=O)C(Cc1cccc2ccccc12)Cc1cccc2ccccc12 (stereo partly shown),150
10,CC[C@H](C)CNC(=O)C[C@H](O)[C@H](CC(C)C)NC(=O)C(NC(=O)C(Cc1cccc2ccccc12)Cc1cccc2ccccc12)C(=O)OC (stereo partly shown),23
11,CCC(C)CNC(=O)C[C@H](O)[C@H](CC(C)C)NC(=O)C(NC(=O)C(CC(=O)N1CCOCC1)Cc1cccc2ccccc12)C(=O)OC (stereo partly shown),98
12,CNC(=S)NCCCC[C@H](NC(=O)C(Cc1ccccc1)CS(=O)(=O)C(C)(C)C)C(=O)N[C@@H](CC1CCCCC1)[C@@H](O)CC(=O)NCCN1CCOCC1 (stereo partly shown),27
13,CCC(C)CNC(=O)C[C@H](O)[C@H](CC(C)C)NC(=O)C(C/C=C/CNC(=S)NC)NC(=O)C(Cc1cccc2ccccc12)Cc1cccc2ccccc12 (stereo partly shown),41
14,CC[C@H](C)CNC(=O)C[C@H](O)[C@H](CC(C)C)NC(=O)C(NC(=O)[C@H](Cc1ccccc1)NC(=O)OC(C)(C)C)C(=O)N1CCCC1 (stereo partly shown),400
15,CCC(C)CNC(=O)C[C@H](O)[C@H](CC(C)C)NC(=O)[C@H](CC#N)NC(=O)[C@H](Cc1ccccc1)NC(=O)OC(C)(C)C (stereo partly shown),260

# Same assay, conditions: at 10^-6 molar concentration; read-out: percent inhibition of renin activity
row,Compound,inhibition at 1 µM [%]
1,CC[C@H](C)CNC(=O)C[C@H](O)[C@H](CC(C)C)NC(=O)C(CCCCCCNC(=O)OCc1ccccc1)NC(=O)C(Cc1cccc2ccccc12)Cc1cccc2ccccc12 (stereo partly shown),28
2,CC[C@H](C)CNC(=O)C[C@H](O)[C@H](CC(C)C)NC(=O)C(NC(=O)C(Cc1cccc2ccccc12)Cc1cccc2ccccc12)C(N)=O (stereo partly shown),24
3,CC[C@H](C)CNC(=O)C[C@H](O)[C@H](CC(C)C)NC(=O)C(NC(=O)C(Cc1cccc2ccccc12)Cc1cccc2ccccc12)C(=O)NC (stereo partly shown),26

# Same assay, conditions: read-out: IC50
row,Compound,IC50 [nM]
1,CC[C@H](C)CNC(=O)C[C@H](O)[C@H](CC(C)C)NC(=O)[C@H](CCCCNC(=S)NC)NC(=O)C(Cc1cccc2ccccc12)Cc1cccc2ccccc12,9.6
2,CCC(C)CNC(=O)C[C@H](O)[C@H](CC(C)C)NC(=O)[C@H](CCCCNC(=O)NC)NC(=O)C(Cc1cccc2ccccc12)Cc1cccc2ccccc12 (stereo partly shown),29
3,CCCCNC(=S)NCCCC[C@H](NC(=O)C(Cc1cccc2ccccc12)Cc1cccc2ccccc12)C(=O)N[C@@H](CC(C)C)[C@@H](O)CC(=O)NC[C@@H](C)CC,46
4,CCCCNC(=S)NCCCC[C@H](NC(=O)C(Cc1cccc2ccccc12)Cc1cccc2ccccc12)C(=O)N[C@@H](CC(C)C)[C@@H](O)CC(=O)NCC(C)CC (stereo partly shown),58
5,CC[C@H](C)CNC(=O)C[C@H](O)[C@H](CC(C)C)NC(=O)[C@H](CCCCNC(=S)NCC(C)(C)C)NC(=O)C(Cc1cccc2ccccc12)Cc1cccc2ccccc12,450
6,CCC(C)CNC(=O)C[C@H](O)[C@H](CC(C)C)NC(=O)[C@H](CCCCNC(=S)NC(C)(C)CC)NC(=O)C(Cc1cccc2ccccc12)Cc1cccc2ccccc12 (stereo partly shown),7.5
7,CCC(C)CNC(=O)C[C@H](O)[C@H](CC1CCCCC1)NC(=O)[C@H](CCCCNC(=N)N[N+](=O)[O-])NC(=O)C(Cc1cccc2ccccc12)Cc1cccc2ccccc12 (stereo partly shown),15
8,CCC(C)CNC(=O)C[C@H](O)[C@H](CC(C)C)NC(=O)[C@H](CCCCNC(N)=NC#N)NC(=O)C(Cc1cccc2ccccc12)Cc1cccc2ccccc12 (stereo partly shown),18
9,CCC(C)CNC(=O)C[C@H](O)[C@H](CC(C)C)NC(=O)[C@H](CCCCNC(=NC#N)NC)NC(=O)C(Cc1cccc2ccccc12)Cc1cccc2ccccc12 (stereo partly shown),15
10,CCC(C)CNC(=O)C[C@H](O)[C@H](CC(C)C)NC(=O)[C@H](CCCCn1cccc1)NC(=O)C(Cc1cccc2ccccc12)Cc1cccc2ccccc12 (stereo partly shown),540
11,CNC(=O)NCCCC[C@H](NC(=O)C(Cc1cccc2ccccc12)Cc1cccc2ccccc12)C(=O)N[C@@H](CC(C)C)[C@@H](O)CC(=O)N[C@@H](CC(C)C)C(=O)NCc1ccccc1,84
12,CCC(C)CNC(=O)C[C@H](O)[C@H](CC(C)C)NC(=O)C(CCCCCNC(=O)OCc1ccccc1)NC(=O)C(Cc1cccc2ccccc12)Cc1cccc2ccccc12 (stereo partly shown),290
13,CCC(C)CNC(=O)C[C@H](O)[C@H](CC(C)C)NC(=O)C(CCCCCNC(=S)NC)NC(=O)C(Cc1cccc2ccccc12)Cc1cccc2ccccc12 (stereo partly shown),40
14,CC[C@H](C)CNC(=O)C[C@H](O)[C@H](CC(C)C)NC(=O)C(CCCCCCNC(N)=NC#N)NC(=O)C(Cc1cccc2ccccc12)Cc1cccc2ccccc12 (stereo partly shown),45
15,CC(C)C[C@H](NC(=O)C[C@H](O)[C@H](CC(C)C)NC(=O)C(CCCCCCNC(=O)OCc1ccccc1)NC(=O)C(Cc1cccc2ccccc12)Cc1cccc2ccccc12)C(=O)NCc1ccccc1 (stereo partly shown),59
16,CC[C@H](C)CNC(=O)C[C@H](O)[C@H](CC(C)C)NC(=O)[C@H](CCCNC(=S)NC)NC(=O)C(Cc1cccc2ccccc12)Cc1cccc2ccccc12,280
17,CC[C@H](C)CNC(=O)C[C@H](O)[C@H](CC(C)C)NC(=O)[C@H](CCCNC(=O)NC)NC(=O)C(Cc1cccc2ccccc12)Cc1cccc2ccccc12,890

row,Compound,IC50 [nM]
1,CC[C@H](C)CNC(=O)C[C@H](O)[C@H](CC(C)C)NC(=O)[C@H](CCCCNC(N)=O)NC(=O)C(Cc1cccc2ccccc12)Cc1cccc2ccccc12,50
2,CC[C@H](C)CNC(=O)C[C@H](O)[C@H](CC(C)C)NC(=O)C(NC(=O)[C@H](Cc1ccccc1)NC(=O)OC(C)(C)C)C(=O)OC (stereo partly shown),41
3,CC[C@H](C)CNC(=O)C[C@H](O)[C@H](CC(C)C)NC(=O)C(NC(=O)C(Cc1cccc2ccccc12)Cc1cccc2ccccc12)C(=O)NCCc1cnc[nH]1 (stereo partly shown),3100
4,CC[C@H](C)CNC(=O)C[C@H](O)[C@H](CC(C)C)NC(=O)C(NC(=O)C(Cc1cccc2ccccc12)Cc1cccc2ccccc12)C(=O)N(C)C (stereo partly shown),200
5,CC[C@H](C)CNC(=O)C[C@H](O)[C@H](CC(C)C)NC(=O)C(Cc1nc2ccccc2[nH]1)NC(=O)C(Cc1cccc2ccccc12)Cc1cccc2ccccc12 (stereo partly shown),2800
6,CC[C@H](C)CNC(=O)C[C@H](O)[C@H](CC(C)C)NC(=O)C(CC#N)NC(=O)[C@H](Cc1ccccc1)NC(=O)CC(C)C (stereo partly shown),570
7,CCOC(=O)C(NC(=O)C(Cc1cccc2ccccc12)Cc1cccc2ccccc12)C(=O)N[C@@H](CC(C)C)[C@@H](O)CC(=O)NC[C@@H](C)CC (stereo partly shown),23
8,CC[C@H](C)CNC(=O)C[C@H](O)[C@H](CC(C)C)NC(=O)C(CCCCCC(=O)NC)NC(=O)C(Cc1cccc2ccccc12)Cc1cccc2ccccc12 (stereo partly shown),1200
9,CCC(C)CNC(=O)C[C@H](O)[C@H](CC(C)C)NC(=O)C(NC(=O)C(Cc1cccc2ccccc12)Cc1cccc2ccccc12)C(=O)OC(C)C (stereo partly shown),33
10,CCC(C)CNC(=O)C[C@H](O)[C@H](CC(C)C)NC(=O)C(C/C=C\CNC(C)=O)NC(=O)C(Cc1cccc2ccccc12)Cc1cccc2ccccc12 (stereo partly shown),100
11,CC(C)(C)OC(=O)NCC#CCC(NC(=O)C(Cc1cccc2ccccc12)Cc1cccc2ccccc12)C(=O)N[C@@H](CC1CCCCC1)[C@@H](O)CC(=O)NCCN1CCOCC1 (stereo partly shown),700
12,O=CNCC#CCC(NC(=O)C(Cc1cccc2ccccc12)Cc1cccc2ccccc12)C(=O)N[C@@H](CC1CCCCC1)[C@@H](O)CC(=O)NCCN1CCOCC1 (stereo partly shown),8
13,CC(=O)NCC#CCC(NC(=O)C(Cc1cccc2ccccc12)Cc1cccc2ccccc12)C(=O)N[C@@H](CC1CCCCC1)[C@@H](O)CC(=O)NCCN1CCOCC1 (stereo partly shown),8.6
14,N=C(NCC#CCC(NC(=O)C(Cc1cccc2ccccc12)Cc1cccc2ccccc12)C(=O)N[C@@H](CC1CCCCC1)[C@@H](O)CC(=O)NCCN1CCOCC1)N[N+](=O)[O-] (stereo partly shown),12
15,CNC(=S)NCC#CCC(NC(=O)C(Cc1cccc2ccccc12)Cc1cccc2ccccc12)C(=O)N[C@@H](CC1CCCCC1)[C@@H](O)CC(=O)NCCN1CCOCC1 (stereo partly shown),48
16,CC[C@H](C)CNC(=O)C[C@H](O)[C@H](CC(C)C)NC(=O)[C@H](CCCCNC(=O)CSC)NC(=O)C(Cc1cccc2ccccc12)Cc1cccc2ccccc12,98
17,CC[C@H](C)CNC(=O)C[C@H](O)[C@H](CC(C)C)NC(=O)[C@H](CCCCNC(=O)CS(C)(=O)=O)NC(=O)C(Cc1cccc2ccccc12)Cc1cccc2ccccc12,68
